Results from US20110150836A1, “METHODS OF TREATING HBV AND HCV INFECTION” (Gilead Sciences, Inc., priority 2009, published 2011).

Test system: cytokines and interferon-inducible genes
Test: mRNA expression of cytokines and interferon-inducible genes in whole blood of healthy woodchucks (real time PCR)
Type: in vivo
Details: for IDO mRNA expression in peripheral blood, Mean / IDO mRNA expression, Fold-change from T0 / IFN-a mRNA expression in peripheral blood, Mean / IFN-a mRNA expression, Fold-change from T0 / IFN-γ mRNA expression in peripheral blood, Mean / IFN-γ mRNA expression, Fold-change from T0 / IL-2 mRNA expression in peripheral blood, Mean / IL-2 mRNA expression, Fold-change from T0 / IL-6 mRNA expression in peripheral blood, Mean / IL-6 mRNA expression, Fold-change from T0 / IL-10 mRNA expression in peripheral blood, Mean / IL-10 mRNA expression, Fold-change from T0 / IL-12 mRNA expression in peripheral blood, Mean / IL-12 mRNA expression, Fold-change from T0 / MxA mRNA expression in peripheral blood, Mean / MxA mRNA expression, Fold-change from T0 / TNF-a mRNA expression in peripheral blood, Mean / TNF-a mRNA expression, Fold-change from T0 / 2′5′-OAS mRNA expression in peripheral blood, Mean / 2′5′-OAS mRNA expression, Fold-change from T0: oral 0.5 mg/kg
Experimental: Compound A was administered orally to adult, WHV-negative woodchucks at two different doses. Three male woodchucks received Compound A at 0.05 mg/kg and three other male woodchucks at 0.5 mg/kg. Whole blood samples (4 mls) were collected from each woodchuck prior to dosing at T0, and then at 4, 8, 12, and 24 hours post-dose using EDTA-containing collection tubes.
The induction of an immune response in woodchucks following administration of Compound A was determined by measuring the mRNA expression of cytokines and interferon-inducible genes in whole blood samples collected at different time points. Total RNA was isolated using the QIAamp RNA Blood Mini Kit (Qiagen) according to the manufacturer's specifications. RNA was eluted into 40 μl nuclease-free water and stored at −70° C. The concentration of RNA was determined spectrophotometrically at OD 260 nm. Two μg of RNA were treated with DNase I (Invitrogen) and reverse transcribed to cDNA with MultiScribe Reverse Transcriptase (Applied Biosystems) using random hexamers. Triplicates of 2 μl cDNA were amplified by real time PCR on an ABI PRISM 7000 Sequence Detection instrument (Applied Biosystems) using SYBR GREEN Master Mix (Applied Biosystems) and woodchuck-specific primers. Amplified target genes included IFN-α, IFN-γ, TNF-α, IL-2, IL-6, IL-10 IL-12, 2′5′-OAS, IDO, and MxA. Woodchuck β-actin mRNA expression was used to normalize target gene expression. Transcription levels of woodchuck cytokines and interferon-inducible genes were represented by the formula 2ΔCt, where ΔCt indicates the difference in the threshold cycle between β-actin and target gene expression. Results were further represented as a fold-change from the transcription level at T0.

Compound: CCCCOc1nc(N)c2nc(O)n(Cc3cccc(CN4CCCC4)c3)c2n1 [Compound A, 6-amino-2-butoxy-9-(3-(pyrrolidin-1-ylmethyl)benzyl)-9H-purin-8-ol]
- IDO mRNA expression in peripheral blood, Mean (4 hrs): 22.67
- IDO mRNA expression, Fold-change from T0 (4 hrs): 9.1 fold
- IFN-a mRNA expression in peripheral blood, Mean (4 hrs): 19.14
- IFN-a mRNA expression, Fold-change from T0 (4 hrs): 3.9 fold
- IFN-γ mRNA expression in peripheral blood, Mean (4 hrs): 2.80
- IFN-γ mRNA expression, Fold-change from T0 (4 hrs): 2.6 fold
- IL-2 mRNA expression in peripheral blood, Mean (4 hrs): 4.32
- IL-2 mRNA expression, Fold-change from T0 (4 hrs): 2.2 fold
- IL-6 mRNA expression in peripheral blood, Mean (4 hrs): 21.84
- IL-6 mRNA expression, Fold-change from T0 (4 hrs): 4.6 fold
- IL-10 mRNA expression in peripheral blood, Mean (4 hrs): 4.01
- IL-10 mRNA expression, Fold-change from T0 (4 hrs): 1.5 fold
- IL-12 mRNA expression in peripheral blood, Mean (4 hrs): 5.74
- IL-12 mRNA expression, Fold-change from T0 (4 hrs): 3.8 fold
- MxA mRNA expression in peripheral blood, Mean (4 hrs): 5.96
- MxA mRNA expression, Fold-change from T0 (4 hrs): 3.6 fold
- TNF-a mRNA expression in peripheral blood, Mean (4 hrs): 43.18
- TNF-a mRNA expression, Fold-change from T0 (4 hrs): 6.2 fold
- 2′5′-OAS mRNA expression in peripheral blood, Mean (8 hrs): 41.13
- 2′5′-OAS mRNA expression, Fold-change from T0 (8 hrs): 8.3 fold
- IDO mRNA expression in peripheral blood, Mean (8 hrs): 30.62
- IDO mRNA expression, Fold-change from T0 (8 hrs): 11.6 fold
- IFN-a mRNA expression in peripheral blood, Mean (8 hrs): 48.85
- IFN-a mRNA expression, Fold-change from T0 (8 hrs): 10.4 fold
- IFN-γ mRNA expression in peripheral blood, Mean (8 hrs): 7.81
- IFN-γ mRNA expression, Fold-change from T0 (8 hrs): 6.7 fold
- IL-2 mRNA expression in peripheral blood, Mean (8 hrs): 3.12
- IL-2 mRNA expression, Fold-change from T0 (8 hrs): 2.0 fold
- IL-6 mRNA expression in peripheral blood, Mean (8 hrs): 18.57
- IL-6 mRNA expression, Fold-change from T0 (8 hrs): 4.6 fold
- IL-10 mRNA expression in peripheral blood, Mean (8 hrs): 17.31
- IL-10 mRNA expression, Fold-change from T0 (8 hrs): 6.6 fold
- IL-12 mRNA expression in peripheral blood, Mean (8 hrs): 6.86
- IL-12 mRNA expression, Fold-change from T0 (8 hrs): 4.2 fold
- MxA mRNA expression in peripheral blood, Mean (8 hrs): 12.86
- MxA mRNA expression, Fold-change from T0 (8 hrs): 7.9 fold
- TNF-a mRNA expression in peripheral blood, Mean (8 hrs): 31.19
- TNF-a mRNA expression, Fold-change from T0 (8 hrs): 4.5 fold
- 2′5′-OAS mRNA expression in peripheral blood, Mean (12 hrs): 884.87
- 2′5′-OAS mRNA expression, Fold-change from T0 (12 hrs): 185.6 fold
- IDO mRNA expression in peripheral blood, Mean (12 hrs): 89.01
- IDO mRNA expression, Fold-change from T0 (12 hrs): 37.0 fold
- IFN-a mRNA expression in peripheral blood, Mean (12 hrs): 7.12
- IFN-a mRNA expression, Fold-change from T0 (12 hrs): 1.5 fold
- IFN-γ mRNA expression in peripheral blood, Mean (12 hrs): 4.36
- IFN-γ mRNA expression, Fold-change from T0 (12 hrs): 3.8 fold
- IL-6 mRNA expression in peripheral blood, Mean (12 hrs): 6.25
- IL-6 mRNA expression, Fold-change from T0 (12 hrs): 1.4 fold
- IL-10 mRNA expression in peripheral blood, Mean (12 hrs): 14.92
- IL-10 mRNA expression, Fold-change from T0 (12 hrs): 5.6 fold
- IL-12 mRNA expression in peripheral blood, Mean (12 hrs): 49.93
- IL-12 mRNA expression, Fold-change from T0 (12 hrs): 30.1 fold
- MxA mRNA expression in peripheral blood, Mean (12 hrs): 71.77
- MxA mRNA expression, Fold-change from T0 (12 hrs): 45.3 fold
- TNF-a mRNA expression in peripheral blood, Mean (12 hrs): 62.30
- TNF-a mRNA expression, Fold-change from T0 (12 hrs): 9.0 fold
- 2′5′-OAS mRNA expression in peripheral blood, Mean (24 hrs): 64.27
- 2′5′-OAS mRNA expression, Fold-change from T0 (24 hrs): 14.4 fold
- IDO mRNA expression in peripheral blood, Mean (24 hrs): 1217.20
- IDO mRNA expression, Fold-change from T0 (24 hrs): 454.2 fold
- IFN-a mRNA expression in peripheral blood, Mean (24 hrs): 4.15
- IFN-a mRNA expression, Fold-change from T0 (24 hrs): 0.9 fold
- IFN-γ mRNA expression in peripheral blood, Mean (24 hrs): 2.16
- IFN-γ mRNA expression, Fold-change from T0 (24 hrs): 1.9 fold
- IL-2 mRNA expression in peripheral blood, Mean (24 hrs): 13.38
- IL-2 mRNA expression, Fold-change from T0 (24 hrs): 5.9 fold
- IL-6 mRNA expression in peripheral blood, Mean (24 hrs): 4.75
- IL-6 mRNA expression, Fold-change from T0 (24 hrs): 1.2 fold
- IL-10 mRNA expression in peripheral blood, Mean (24 hrs): 8.74
- IL-10 mRNA expression, Fold-change from T0 (24 hrs): 3.3 fold
- IL-12 mRNA expression in peripheral blood, Mean (24 hrs): 11.55
- IL-12 mRNA expression, Fold-change from T0 (24 hrs): 7.0 fold
- MxA mRNA expression in peripheral blood, Mean (24 hrs): 758.52
- MxA mRNA expression, Fold-change from T0 (24 hrs): 518.8 fold
- TNF-a mRNA expression in peripheral blood, Mean (24 hrs): 30.71
- TNF-a mRNA expression, Fold-change from T0 (24 hrs): 4.5 fold
- mRNA expression of IFN-α, IFN-γ, TNF-alpha, IL-2, IL-6, IL-10, IL-12, 2′5′-OAS, IDO and MxA (oral 0.05 and 0.5 mg/kg): induced dose-dependent increases in the mRNA expression
- time of maximal mRNA expression of IFN-α, IFN-γ, IL-6, and IL-10 (oral dosing): 8 hours post-dose
- time of maximal mRNA expression of IL-2, IDO, and MxA (oral dosing): 24 hours post-dose
- time of maximal mRNA expression of TNF-α, IL-12, and 2′5′-OAS (oral dosing): 12 hours post-dose
